# Test results from patent US9839618B2, “Compositions and methods relating to proliferative diseases” (The Penn State Research Foundation, priority 2010, dated 2017).
# Where two headings read alike, the source gives them in different places.
# Experiments:
# [1] = test system: UACC 903 metastatic melanoma cells; experiment: MTS assay viability IC50, UACC 903; format: cell-based, human; conditions: for IC50: Homo sapiens, UACC-903
# Procedure: (§1) The efficacy of leelamine to kill other cancer types is measured and the IC50 for cell lines derived from carcinomas of breast, lung, prostate, connective tissue, pancreas and colon determined. The MTS assay as described in Sharma, A. et al., Clin Cancer Res, 2009, 15:1674-85; and Madhunapantula, S. V. et al., Mol Cancer Ther, 2008, 7:1297-308 is used to establish the IC50 at 24, 48 and 72 hours of leelamine treatment for normal human epidermal melanocytes (FOM103), normal skin fibroblast cells (FF2441), normal skin keratinocytes (HFK) and compared to melanocytic lesion cells from the radial-, vertical- and metastatic melanoma stages. 5×10^3 cells per well in 100 μL of media are plated and grown in a 96-well plate for 48 to 72 hours and treated with either DMSO vehicle control or 0.62 to 40 μmol/L of leelamine for 24, 48 or 72 hours. IC50 values for each compound in μmol/L for respective cell lines are measured from three independent experiments using GraphPad Prism version 4.01 (GraphPad Software, La Jolla, Calif.). Leelamine is found to be not toxic to normal cells and effective to kill melanoma cells as well as non-melanoma cancer cells as shown in Table 1 in FIG. 20. Leelamine is 3- to 4-fold more specific at killing metastatic melanoma than normal cells, supporting cancer therapeutic utility at concentrations<2 μmol/L.
# (§2) 5×10^3 cells per well in 100 μL of media are plated and grown in a 96-well plate for 48 to 72 hours and treated with either DMSO vehicle control or 0.62 to 40 μmol/L of leelamine for 24, 48 or 72 hours. IC50 values for each compound in μmol/L for respective cell lines are measured from three independent experiments using GraphPad Prism version 4.01 (GraphPad Software, La Jolla, Calif.).
# (§3) The IC50 and effect of liposomal preparations of leelamine on viability of normal human melanocytes, fibroblasts and melanoma cells UACC 903 and 1205 Lu are measured using the MTS assay (Promega, Madison, Wis.). Empty liposomes or liposomes containing abietic acid are used as controls. 5×10^3 cells per well in 100 μL of media are plated and grown in a 96-well plate for 48 or 72 hours for melanoma and normal cell lines, respectively. The cells are then treated with 0.62 to 40 μmol/L of liposome alone, a liposomal preparation of abietic acid, or with Nanolipolee-007 for 24 hours. IC50 values for each liposome in μmol/L for respective cell lines are measured from three independent experiments using GraphPad Prism version 4.01 (GraphPad Software, La Jolla, Calif.). Nanolipolee-007 retains the growth inhibitory activity of leelamine in killing melanoma cells in culture and specifically kills melanoma cells compared to normal cells, FIG. 24.
# (§4) Dehydroabietylamine, its N-substituted derivatives and the corresponding dihydroabietylamine and its N-substituted derivatives are tested for their capability to inhibit cell growth of cancer cell lines, including melanoma (UACC 903, 1205Lu), breast (MCF-7), fibrosarcoma (HT-1080), colon (Caco-2), and prostate (PC-3) cancer cell lines. Viability and IC50 of normal human fibroblasts and cell lines from melanoma and other malignancies following treatment with all the agents are measured using the MTS assay (Promega, Madison, Wis.). Human fibroblast FF2441 cells, metastatic melanoma cell lines 1205 Lu and UACC 903 as well as cancer cell lines representing sarcoma (HT-1080), prostate (PC-3, LNCaP), breast (MCF-7) and lung (A-549) are maintained in DMEM (Invitrogen, Carlsbad, Calif.) supplemented with 10% FBS (Hyclone, Logan, Utah) in a 5% CO2 atmosphere, humidified 37° C. incubator. 5×10^3 cells per well in 100 μL of media are plated and grown in a 96-well plate for 48 to 72 h and treated with either DMSO vehicle control or 0.62 to 40 μmol/L for 24, 48 or 72 h. IC50 values for each compound in […] for respective cell lines are measured from three independent experiments using GraphPad Prism version 4.01 (GraphPad Software, La Jolla, Calif.). […]
# [2] = test system: cancer cell line; experiment: MTS assay viability IC50, A-459; format: cell-based; conditions: A459; Table 5; read-out: IC50 Liver (A-459)
# Procedure: (§5) Dehydroabietylamine, its N-substituted derivatives and the corresponding dihydroabietylamine and its N-substituted derivatives are tested for their capability to inhibit cell growth of cancer cell lines, including melanoma (UACC 903, 1205Lu), breast (MCF-7), fibrosarcoma (HT-1080), colon (Caco-2), and prostate (PC-3) cancer cell lines. Viability and IC50 of normal human fibroblasts and cell lines from melanoma and other malignancies following treatment with all the agents are measured using the MTS assay (Promega, Madison, Wis.). Human fibroblast FF2441 cells, metastatic melanoma cell lines 1205 Lu and UACC 903 as well as cancer cell lines representing sarcoma (HT-1080), prostate (PC-3, LNCaP), breast (MCF-7) and lung (A-549) are maintained in DMEM (Invitrogen, Carlsbad, Calif.) supplemented with 10% FBS (Hyclone, Logan, Utah) in a 5% CO2 atmosphere, humidified 37° C. incubator. 5×10^3 cells per well in 100 μL of media are plated and grown in a 96-well plate for 48 to 72 h and treated with either DMSO vehicle control or 0.62 to 40 μmol/L for 24, 48 or 72 h. IC50 values for each compound in […] for respective cell lines are measured from three independent experiments using GraphPad Prism version 4.01 (GraphPad Software, La Jolla, Calif.). FIG. 52 is a graph showing IC50 values for leelamine and compounds 4a, 4b and 5a in treated fibroblasts (FF2441) compared to melanoma cells. Selectivity ratio here is defined as ratio of activity against fibroblasts compared to activity against melanoma cells. Leelamine is relatively selective with a ratio of >6 and >4 for UACC903 and 1205Lu melanoma cells. The selectivity ratio of compound 4a is ˜4 and ˜3 for UACC903 and 1205Lu and for compound 4b is ˜4 for both cell lines. The selectivity ratio of compound 5a is ˜4 for UACC903 and >2 for 1205Lu cells.
# [3] = test system: Prostate (LnCap) cancer cell line; experiment: MTS assay viability IC50, LnCap; format: cell-based; conditions: Homo sapiens, Table 5
# Procedure: as §5
# [4] = test system: Fibrosarcoma (HT-1080) cancer cell line; experiment: MTS assay viability IC50, HT-1080; format: cell-based; conditions: Homo sapiens, Table 5, read-out: IC50 Fibro Sarcoma (HT-1080)
# Procedure: as §5
# [5] = test system: 1205 Lu metastatic melanoma cells; experiment: MTS assay viability IC50, 1205 Lu; format: cell-based, human; conditions: for IC50: Homo sapiens, 1205Lu
# Procedure: as §1, §2, §3, §4
# [6] = test system: FF2441 normal human fibroblasts; experiment: MTS assay viability IC50, normal fibroblasts; format: cell-based; conditions: Homo sapiens, FF2441; Table 5; read-out: IC50 Fibroblast FF2441
# Procedure: as §1
# as §2, with “Calif.). […]” for “Calif.).”
# as §5
# [7] = test system: Prostate (PC-3) cancer cell line; experiment: MTS assay viability IC50, PC-3; format: cell-based; conditions: Table 5
# Procedure: as §5
# [8] = test system: Breast (MCF-7) cancer cell line; experiment: MTS assay viability IC50, MCF-7; format: cell-based; conditions: Homo sapiens, MCF7; Table 5
# Procedure: as §5
# [9] = activity against fibroblasts FF2441 compared to melanoma cells
smiles,measurement,setting,value
"CNC[C@]1(C)CCC[C@]2(C)C3CCC(C(C)C)=CC3=CCC12 (stereo partly drawn) [Compound 4b, {[(1R,4aR)-1,4a-dimethyl-7-(propan-2-yl)-1,2,3,4,4a,4b,5,6,10,10a-decahydrophenanthren-1-yl]methyl}(methyl)amine]",IC50,"[1]; Example 8, read-out: IC50 UACC 903",2360 nM
same,IC50,"[1]; Table 4, read-out: IC50 Metastatic Melanoma Cell line UACC903",2360 ± 250 nM
same,IC50,"[1]; Table 5, read-out: IC50 Melanoma (UACC903)",2360 ± 250 nM
same,IC50,"[1]; Table 6, read-out: IC50 Metastatic melanoma UACC 903",2360 ± 250 nM
same,IC50,"[1]; Table 7, read-out: IC50 (UACC903)",2360 nM
same,"Selectivity ratio, fibroblasts versus UACC903",[1]; [9],~4
same,IC50,[2],15300 ± 1830 nM
same,IC50,[3],22400 ± 3310 nM
same,IC50,[4],4540 ± 870 nM
same,IC50,"[5]; Example 8, read-out: IC50 1205Lu",2380 nM
same,IC50,"[5]; Table 4, read-out: IC50 Metastatic Melanoma Cell line 1205Lu",2380 ± 140 nM
same,IC50,"[5]; Table 6, read-out: IC50 Metastatic melanoma 1205 Lu",2380 ± 140 nM
same,"Selectivity ratio, fibroblasts versus 1205Lu",[5]; [9],~4
same,IC50,[6],9330 ± 1270 nM
same,IC50,[7],10700 ± 870 nM
same,IC50,[8],9040 ± 2430 nM
